Test results from ChEMBL document CHEMBL3751777, “Important Hydrogen Bond Networks in Indoleamine 2,3-Dioxygenase 1 (IDO1) Inhibitor Design Revealed by Crystal Structures of Imidazoleisoindole Derivatives with IDO1” (J Med Chem, 2016).

Columns and labels:
[1] = molecular target: T1, Indoleamine 2,3-dioxygenase 1 (Homo sapiens, UniProt P14902); test: Inhibition of IDO1 in IFNgamma-stimulated human HeLa cells incubated for 24 hrs; type: cell-based
[2] = molecular target: T1, Indoleamine 2,3-dioxygenase 1; test: Inhibition of recombinant human IDO1 assessed as conversion of […] incubated for 1 hr by fluorescence analysis
Mus musculus [3] = test: Reduction of kynurenine in LPS-stimulated mouse plasma at 50 mg/kg, po by LC/MS/MS analysis; type: functional; parameters: scale not given: the % may be the effect or the level left
[4] = Toxicity in rat administered as bid for 28 days; type: organism-based; details: in vivo
Mus musculus [5] = test: Reduction of kynurenine in LPS-stimulated mouse tissue at 50 mg/kg, po by LC/MS/MS analysis; type: functional; parameters: scale not given: the % may be the effect or the level left
[6] = Toxicity in dog administered as bid for 28 days; type: organism-based, Canis lupus familiaris; details: in vivo

T1 sequence (P14902 whole entry): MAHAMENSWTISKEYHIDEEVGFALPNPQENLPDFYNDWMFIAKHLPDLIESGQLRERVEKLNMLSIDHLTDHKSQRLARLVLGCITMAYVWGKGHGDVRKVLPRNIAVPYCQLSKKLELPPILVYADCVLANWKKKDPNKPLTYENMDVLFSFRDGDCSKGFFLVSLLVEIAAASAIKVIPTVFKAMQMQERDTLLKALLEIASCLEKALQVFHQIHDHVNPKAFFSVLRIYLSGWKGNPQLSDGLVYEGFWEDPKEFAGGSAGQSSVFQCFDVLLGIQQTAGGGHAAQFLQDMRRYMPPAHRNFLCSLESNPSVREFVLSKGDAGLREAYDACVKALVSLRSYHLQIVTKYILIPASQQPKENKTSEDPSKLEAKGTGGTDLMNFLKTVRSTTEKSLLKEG

SMILES	EC50 [1] [µM]	IC50 [2] [µM]	other results
Cc1ncc2n1C(CC(O)C1CCCCC1)c1ccccc1-2 (stereo not drawn)	> 10	> 10	–
OC(Cn1c2ccccc2c2cccnc21)C1CCCCC1 (stereo not drawn)	–	> 10	–
O=C(Cn1c2ccccc2c2cccnc21)C1CCCCC1	–	> 10	–
OC(CC1c2ccccc2-c2cncn21)C1CCCCC1 (mixture of isomers)	–	–	Activity (Mus musculus [3]): 50%; NOAEL at 672 h [4]: 80 mg/kg/day; Activity (Mus musculus [5]): 50%; NOAEL at 672 h [6]: 80 mg/kg/day

Now from value to compound, other results behind:

EC50 [1] [µM]	IC50 [2] [µM]	SMILES	other results
> 10	> 10	OC(CC1c2ccccc2-c2cnnn21)C1CCCCC1 (stereo not drawn)	–
–	> 10	OC(Cn1c2ccccc2c2ccncc21)C1CCCCC1 (stereo not drawn)	–
> 10	1.14	OC(CC1Nc2ccccc2-c2cncn21)C1CCCCC1 (stereo not drawn)	–
